What was measured:
[1] = system: pigweed; assay: Test C pre-/postemergence test; assay type: in vivo, Amaranthus retroflexus
How it was run: (§1)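 Seeds were planted and treated preemergence with test chemical in a non-phytotoxic solvent mixture containing surfactant. Postemergence applications of the same formulation went onto plants 2 to 18 cm tall (1- to 4-leaf stage). A dash marks no test result.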

[2] = system: wheat; assay: Test C pre-/postemergence test; assay type: in vivo, Triticum aestivum
How it was run: as §1

[3] = system: eastern black nightshade; assay: Test C pre-/postemergence test; assay type: in vivo, Solanum ptycanthum
How it was run: as §1

[4] = system: catchweed bedstraw; assay: Test C pre-/postemergence test; assay type: in vivo, Galium aparine
How it was run: as §1

[5] = system: Surinam grass; assay: Test C pre-/postemergence test; assay type: in vivo, Brachiaria decumbens
How it was run: as §1

[6] = system: common (oilseed) sunflower; assay: Test C pre-/postemergence test; assay type: in vivo, Helianthus annuus
How it was run: as §1

[7] = system: duck salad; assay: Test C flooded paddy test; assay type: in vivo, Heteranthera limosa; details: Flood
How it was run: (§2)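 Under a constant 3 cm flood, test compounds went directly into the paddy water. Following 13 to 15 days of greenhouse growth, treated species and controls were compared by eye.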

[8] = system: crabgrass; assay: Test C pre-/postemergence test; assay type: in vivo, Digitaria sanguinalis
How it was run: as §1

[9] = system: bermudagrass; assay: Test C pre-/postemergence test; assay type: in vivo, Cynodon dactylon
How it was run: as §1

[10] = system: barnyardgrass; assay: Test C flooded paddy test; assay type: in vivo, Echinochloa crus-galli; details: Flood
How it was run: as §2

[11] = system: rice; assay: Test C flooded paddy test; assay type: in vivo, Oryza sativa; details: Flood
How it was run: as §2

[12] = system: blackgrass; assay: Test C pre-/postemergence test; assay type: in vivo, Alopecurus myosuroides
How it was run: as §1

[13] = system: wild oat; assay: Test C pre-/postemergence test; assay type: in vivo, Avena fatua
How it was run: as §1

[14] = system: corn; assay: Test A pre-/postemergence greenhouse test; assay type: in vivo, Zea mays; details: for Plant response rating, Corn: 0 to 100 scale where 0 is no effect and 100 is complete control; for Corn plant response rating: 0 to 100 scale
How it was run: (§3)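 Two application timings were run side by side in the greenhouse. Before emergence, compound went onto the soil surface of loam–sand pots as a directed spray; after emergence, plants at 2–10 cm and the one- to two-leaf stage were treated. Visual injury versus controls was rated at approximately day ten.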

[15] = system: velvetleaf; assay: Test C pre-/postemergence test; assay type: in vivo, Abutilon theophrasti
How it was run: as §1

[16] = system: kochia; assay: Test C pre-/postemergence test; assay type: in vivo, Kochia scoparia
How it was run: as §1

[17] = system: redroot pigweed; assay: Test A pre-/postemergence greenhouse test; assay type: in vivo, Amaranthus retroflexus; details: for Plant response rating, Pigweed: 0 to 100 scale where 0 is no effect and 100 is complete control; for Pigweed plant response rating: 0 to 100 scale
How it was run: as §3

[18] = 62 g ai/ha, Preemergence, scale 0 to 100
[19] = 125 g ai/ha, preemergence, scale 0 (no effect) to 100 (complete control)
[20] = Preemergence, 31 g ai/ha, scale 0 to 100 (0 no effect, 100 complete control)
[21] = preemergence, 250 g ai/ha, scale 0 (no effect) to 100 (complete control)
[22] = 62 g ai/ha, scale 0 to 100 (0 no effect, 100 complete control)
[23] = 250 g ai/ha, scale 0 to 100, 0 no effect, 100 complete control, 13 to 15 days
[24] = Postemergence, 500 g ai/ha, 0 is no effect, 100 is complete control
[25] = Preemergence, 125 g ai/ha, 0 no effect, 100 complete control

Compound: CCc1cc[n+]([O-])c([S+]([O-])Cc2c(C(F)(F)F)nn(C)c2OCC(F)(F)F)c1 (stereo not drawn) [Compound 59]
- Pigweed plant response rating [1, 18]: 100
- Pigweed plant response rating [1, 19]: 100
- Plant response rating, Pigweed [1, 20]: 0
- Pigweed plant response rating [1, 21]: 100
- Wheat plant response rating [2, 18]: 40
- Wheat plant response rating [2, 19]: 85
- Plant response rating, Wheat [2, 20]: 30
- Wheat plant response rating [2, 21]: 95
- Nightshade plant response rating [3, 18]: 85
- Nightshade plant response rating [3, 21]: 85
- Galium plant response rating [4, 18]: 100
- Galium plant response rating [4, 19]: 100
- Plant response rating, Galium [4, 20]: 0
- Galium plant response rating [4, 21]: 100
- Surinam Grass plant response rating [5, 18]: 80
- Surinam Grass plant response rating [5, 19]: 100
- Plant response rating, Surinam Grass [5, 20]: 40
- Surinam Grass plant response rating [5, 21]: 100
- Sunflower plant response rating [6, 18]: 85
- Sunflower plant response rating [6, 19]: 85
- Plant response rating, Sunflower [6, 20]: 40
- Sunflower plant response rating [6, 21]: 100
- Plant response rating, Ducksalad [7, 22]: 40
- Plant response rating, Ducksalad [7, 23]: 90
- Crabgrass, Large plant response rating [8, 18]: 80
- Crabgrass, Large plant response rating [8, 19]: 100
- Plant response rating, Crabgrass, Large [8, 20]: 70
- Crabgrass, Large plant response rating [8, 21]: 100
- Bermudagrass plant response rating ([9]; 62 g ai/ha, Preemergence, scale 0 to 100 (0 no effect, 100 complete control)): 100
- Bermudagrass plant response rating [9, 19]: 100
- Plant response rating, Bermudagrass [9, 20]: 70
- Bermudagrass plant response rating [9, 21]: 100
- Plant response rating, Barnyardgrass [10, 22]: 30
- Plant response rating, Barnyardgrass [10, 23]: 60
- Plant response rating, Rice [11, 22]: 10
- Plant response rating, Rice [11, 23]: 70
- Blackgrass plant response rating [12, 18]: 95
- Blackgrass plant response rating [12, 19]: 95
- Plant response rating, Blackgrass [12, 20]: 60
- Blackgrass plant response rating [12, 21]: 100
- Oat, Wild plant response rating [13, 18]: 85
- Oat, Wild plant response rating [13, 19]: 90
- Plant response rating, Oat, Wild [13, 20]: 60
- Oat, Wild plant response rating [13, 21]: 90
- Plant response rating, Corn ([14]; Postemergence, 125 g ai/ha): 50
- Corn plant response rating [14, 24]: 70
- Corn plant response rating [14, 25]: 20
- Plant response rating, Corn ([14]; Preemergence, 500 g ai/ha): 90
- Velvetleaf plant response rating [15, 18]: 70
- Velvetleaf plant response rating [15, 19]: 100
- Plant response rating, Velvetleaf [15, 20]: 0
- Velvetleaf plant response rating [15, 21]: 100
- Kochia plant response rating [16, 18]: 70
- Kochia plant response rating [16, 19]: 100
- Plant response rating, Kochia [16, 20]: 0
- Kochia plant response rating [16, 21]: 100
- Plant response rating, Pigweed ([17]; Postemergence, 125 g ai/ha): 60
- Pigweed plant response rating [17, 24]: 90
- Pigweed plant response rating [17, 25]: 100
- Plant response rating, Pigweed ([17]; Preemergence, 500 g ai/ha): 100
